Experimental data reported in PubChem BioAssay (NCI).
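Where inhibition never reached the appropriate level, the endpoint shown equals the highest concentration tested. Otherwise, values were interpolated linearly from a five-concentration, 48-hour dose response in 96-well plates. GI50 = concentration required for 50% inhibition of growth. TGI denotes the concentration required for complete inhibition of growth.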

Legend:
Assay in all cases: growth of human tumour cells (NCI), 48 h
[1] = test system: 786-0 renal
[2] = test system: A498 renal
[3] = test system: A549 NSCLC
[4] = test system: ACHN renal
[5] = test system: BT-549 breast
[6] = test system: CAKI-1 renal
[7] = test system: CCRF-CEM leukemia
[8] = test system: COLO 205 colon
[9] = test system: DU-145 prostate
[10] = test system: EKVX NSCLC
[11] = test system: HCT-116 colon
[12] = test system: HCT-15 colon
[13] = test system: HOP-62 NSCLC
[14] = test system: HOP-92 NSCLC
[15] = test system: HS 578T breast
[16] = test system: HT29 colon
[17] = test system: IGROV1 ovarian
[18] = test system: K-562 leukemia
[19] = test system: KM12 colon
[20] = test system: LOX IMVI melanoma
[21] = test system: M14 melanoma
[22] = test system: MALME-3M melanoma
[23] = test system: MCF7 breast
[24] = test system: MDA-MB-231 breast
[25] = test system: MDA-MB-435
[26] = test system: MOLT-4 leukemia
[27] = test system: NCI-H226 lung
[28] = test system: NCI-H23 lung
[29] = test system: NCI-H460 lung
[30] = test system: NCI-H522 lung
[31] = test system: NCI/ADR-RES ovarian
[32] = test system: OVCAR-3 ovarian
[33] = test system: OVCAR-4 ovarian
[34] = test system: OVCAR-5 ovarian
[35] = test system: OVCAR-8 ovarian
[36] = test system: PC-3 prostate
[37] = test system: RPMI-8226 leukemia
[38] = test system: RXF 393 renal
[39] = test system: SF-268 CNS
[40] = test system: SF-295 CNS
[41] = test system: SF-539 CNS
[42] = test system: SK-MEL-2 melanoma
[43] = test system: SK-MEL-28 melanoma
[44] = test system: SK-MEL-5 melanoma
[45] = test system: SN12C renal
[46] = test system: SNB-19 CNS
[47] = test system: SNB-75 CNS
[48] = test system: SR leukemia
[49] = test system: SW-620 colon
[50] = test system: T-47D breast
[51] = test system: TK-10 renal
[52] = test system: U251 CNS
[53] = test system: UACC-257 melanoma
[54] = test system: UACC-62 melanoma
[55] = test system: UO-31 renal
[56] = test system: HCC-2998 colon
[57] = test system: SK-OV-3 ovarian

`COc1cc2c(/C=C3\C(=O)N(C)c4ccc(O)cc43)c[nH]c2cc1C` gave a GI50 [1] of 3.95 µM, a TGI [1] of 21 µM and a GI50 [2] of 20.8 µM. For the same molecule, the TGI [2] was 39.6 µM, the GI50 [3] was 3.05 µM and the TGI [3] was 18.1 µM. For the same molecule, the GI50 [4] was 3.42 µM, the TGI [4] was 26.6 µM and the GI50 [5] was 1.86 µM. For the same molecule, the TGI [5] was 5.44 µM, the GI50 [6] was 3.79 µM and the TGI [6] was 22.2 µM. It also gave a GI50 [7] of 3.35 µM, a TGI [7] of 35.9 µM and a GI50 [8] of 3.7 µM. The TGI [8] was 16.8 µM, the GI50 [9] was 3.56 µM and the TGI [9] was 16.1 µM. The GI50 [10] was 4.58 µM, the TGI [10] was 24.1 µM and the GI50 [11] was 3.16 µM. It also gave a TGI [11] of 16 µM, a GI50 [12] of 4.75 µM and a TGI [12] of 67.8 µM. It also gave a GI50 [13] of 5.98 µM, a TGI [13] of 20.1 µM and a GI50 [14] of 14.3 µM. For the same molecule, the TGI [14] was 34.3 µM, the GI50 [15] was 4.33 µM and the TGI [15] was > 100 µM. For the same molecule, the GI50 [16] was 3.67 µM, the TGI [16] was > 100 µM and the GI50 [17] was 3.7 µM. For the same molecule, the TGI [17] was 22.3 µM, the GI50 [18] was 4.67 µM and the TGI [18] was > 100 µM. The GI50 [19] was 0.854 µM, the TGI [19] was 3.52 µM and the GI50 [20] was 2.36 µM. The TGI [20] was > 100 µM, the GI50 [21] was 2.9 µM and the TGI [21] was 8.4 µM. It also gave a GI50 [22] of 2.44 µM, a TGI [22] of 7.08 µM and a GI50 [23] of 2.28 µM. It also gave a TGI [23] of 7.35 µM, a GI50 [24] of 10.9 µM and a TGI [24] of 44.5 µM. The GI50 [25] was 0.373 µM, the TGI [25] was 1.5 µM and the GI50 [26] was 3.3 µM. For the same molecule, the TGI [26] was 10.6 µM, the GI50 [27] was 31.1 µM and the TGI [27] was 75.4 µM. The GI50 [28] was 8.77 µM, the TGI [28] was 38.2 µM and the GI50 [29] was 2.62 µM. The TGI [29] was 7.79 µM, the GI50 [30] was 1.47 µM and the TGI [30] was 5.2 µM. It also gave a GI50 [31] of 4.17 µM, a TGI [31] of 25.9 µM and a GI50 [32] of 3.86 µM. For the same molecule, the TGI [32] was 22.6 µM, the GI50 [33] was 5.3 µM and the TGI [33] was > 100 µM. The GI50 [34] was 22 µM, the TGI [34] was 42.5 µM and the GI50 [35] was 3.38 µM. For the same molecule, the TGI [35] was 14.5 µM, the GI50 [36] was 3.5 µM and the TGI [36] was 15.6 µM. The GI50 [37] was 3.54 µM, the TGI [37] was 17.2 µM and the GI50 [38] was 4.89 µM. It also gave a TGI [38] of 45.2 µM, a GI50 [39] of 5.29 µM and a TGI [39] of 46.4 µM. For the same molecule, the GI50 [40] was 2.64 µM, the TGI [40] was 17.3 µM and the GI50 [41] was 1.56 µM. The TGI [41] was 3.74 µM, the GI50 [42] was 2.12 µM and the TGI [42] was 6.33 µM. For the same molecule, the GI50 [43] was 2.99 µM, the TGI [43] was 28.1 µM and the GI50 [44] was 3.87 µM. It also gave a TGI [44] of 13.2 µM, a GI50 [45] of 14.6 µM and a TGI [45] of 47.2 µM. The GI50 [46] was 6.16 µM, the TGI [46] was 52.9 µM and the GI50 [47] was 5.7 µM. The TGI [47] was 37 µM, the GI50 [48] was 2.88 µM and the TGI [48] was > 100 µM. For the same molecule, the GI50 [49] was 3.83 µM, the TGI [49] was 34 µM and the GI50 [50] was 4.05 µM. For the same molecule, the TGI [50] was 39.7 µM, the GI50 [51] was 6.04 µM and the TGI [51] was 32.6 µM. For the same molecule, the GI50 [52] was 3.35 µM, the TGI [52] was 32.2 µM and the GI50 [53] was 2.54 µM. It also gave a TGI [53] of 7.01 µM, a GI50 [54] of 9.73 µM and a TGI [54] of 30.3 µM. It also gave a GI50 [55] of 3.07 µM and a TGI [55] of 12.6 µM.

Work on `O=C(/C=C/c1cccs1)c1ccc(Cl)cc1Cl` yielded a GI50 [1] of 16.6 µM, a TGI [1] of 33.9 µM and a GI50 [2] of 17.9 µM. The TGI [2] was 32.7 µM, the GI50 [3] was 17.3 µM and the TGI [3] was 36.4 µM. It also gave a GI50 [4] of 17.4 µM, a TGI [4] of 31.3 µM and a GI50 [5] of 19.3 µM. The TGI [5] was 39.9 µM, the GI50 [6] was 20.9 µM and the TGI [6] was 43.1 µM. The GI50 [7] was 32.1 µM, the TGI [7] was 97.1 µM and the GI50 [8] was 27.1 µM. It also gave a TGI [8] of 88.9 µM, a GI50 [9] of 20 µM and a TGI [9] of 43.7 µM. It also gave a GI50 [10] of 18.6 µM, a TGI [10] of 36.7 µM and a GI50 [56] of 19.2 µM. For the same molecule, the TGI [56] was 34.8 µM, the GI50 [11] was 14 µM and the TGI [11] was 30.8 µM. The GI50 [12] was 14.7 µM, the TGI [12] was 32.4 µM and the GI50 [13] was 19.4 µM. For the same molecule, the TGI [13] was 37.7 µM, the GI50 [14] was 23.8 µM and the TGI [14] was 61.4 µM. For the same molecule, the GI50 [15] was 24.5 µM, the TGI [15] was 55.9 µM and the GI50 [16] was 28.1 µM. The TGI [16] was > 100 µM, the GI50 [18] was 19.1 µM and the TGI [18] was 56.4 µM. For the same molecule, the GI50 [19] was 19.1 µM, the TGI [19] was 40 µM and the GI50 [21] was 19.8 µM. For the same molecule, the TGI [21] was 40.5 µM, the GI50 [22] was 1.04 µM and the TGI [22] was 19.8 µM. The GI50 [23] was 18.4 µM, the TGI [23] was 51.6 µM and the GI50 [24] was 14.3 µM. It also gave a TGI [24] of 28.1 µM, a GI50 [25] of 17.7 µM and a TGI [25] of 35.2 µM. The GI50 [26] was 18.8 µM, the TGI [26] was 51.9 µM and the GI50 [28] was 17.1 µM. For the same molecule, the TGI [28] was 33.6 µM, the GI50 [29] was 18 µM and the TGI [29] was 37.1 µM. For the same molecule, the GI50 [30] was 17.4 µM, the TGI [30] was 36.5 µM and the GI50 [31] was 31.4 µM. The TGI [31] was > 100 µM, the GI50 [32] was 19 µM and the TGI [32] was 36.4 µM. For the same molecule, the GI50 [34] was 20.1 µM, the TGI [34] was 39 µM and the GI50 [35] was 19.4 µM. The TGI [35] was 48.3 µM, the GI50 [36] was 33.2 µM and the TGI [36] was > 100 µM. The GI50 [37] was 27.7 µM, the TGI [37] was > 100 µM and the GI50 [38] was 19.4 µM. The TGI [38] was 38.4 µM, the GI50 [39] was 19.1 µM and the TGI [39] was 39 µM. It also gave a GI50 [41] of 19.8 µM, a TGI [41] of 38.6 µM and a GI50 [42] of 17.5 µM. The TGI [42] was 35 µM, the GI50 [43] was 22.4 µM and the TGI [43] was 52.7 µM. For the same molecule, the GI50 [44] was 15 µM, the TGI [44] was 28.8 µM and the GI50 [57] was 25.5 µM. It also gave a TGI [57] of 55.3 µM, a GI50 [45] of 16.4 µM and a TGI [45] of 31.2 µM. For the same molecule, the GI50 [46] was 24 µM, the TGI [46] was 64.2 µM and the GI50 [47] was 18.1 µM. For the same molecule, the TGI [47] was 35.9 µM, the GI50 [48] was 15 µM and the TGI [48] was 77.3 µM. It also gave a GI50 [49] of 18.8 µM, a TGI [49] of 37.1 µM and a GI50 [50] of 28.6 µM. For the same molecule, the TGI [50] was > 100 µM, the GI50 [51] was 25.3 µM and the TGI [51] was 61.1 µM. For the same molecule, the GI50 [52] was 14.6 µM, the TGI [52] was 28.1 µM and the GI50 [53] was 16.6 µM. For the same molecule, the TGI [53] was 31.9 µM, the GI50 [54] was 13.4 µM and the TGI [54] was 26.4 µM. It also gave a GI50 [55] of 18.5 µM and a TGI [55] of 34.2 µM.
